Tested on: hepatocytes
Experiment: RNA-seq of hepatocytes treated with Phase III failure compounds
Details: hepatocytes
Experimental: RNA-seq was performed to determine the effects of the compounds on hepatocytes.
Significance was determined by the criteria of FPKM≥0.5, a log 2(fold-change)≥1, and a […].

For `CCC(CC)[C@H](NC(C)=O)[C@@H]1[C@H](O)[C@@H](C(=O)O)C[C@H]1NC(=N)N.O.O.O` [peramivir (trihydrate), peramivir], the “RNA-seq results: MCCC1 expression” value (gene MCCC1) was −0.27, the “RNA-seq results: MCCC2 expression” value (gene MCCC2) was −0.31 and the “RNA-seq results: MCM6 expression” value (gene MCM6) was −0.34. For the same compound, the “RNA-seq results: MEN1 expression” value (gene MEN1) was 0.18, the “RNA-seq results: MET expression” value (gene MET) was −0.27 and the “RNA-seq results: MGAT2 expression” value (gene MGAT2) was −0.09. For the same compound, the “RNA-seq results: MKS1 expression” value (gene MKS1) was 0.23, the “RNA-seq results: MLH1 expression” value (gene MLH1) was −0.18 and the “RNA-seq results: MMAA expression” value (gene MMAA) was −0.25. For the same compound, the “RNA-seq results: MMAB expression” value (gene MMAB) was −0.09, the “RNA-seq results: MMADHC expression” value (gene MMADHC) was −0.38 and the “RNA-seq results: MOCS1 expression” value (gene MOCS1) was 0.03. The “RNA-seq results: MOGAT2 expression” value (gene MOGAT2) was 0.66, the “RNA-seq results: MOGS expression” value (gene MOGS) was 0.33 and the “RNA-seq results: MPZ expression” value (gene MPZ) was 0.37. The “RNA-seq results: MRPL3 expression” value (gene MRPL3) was −0.47, the “RNA-seq results: MTHFR expression” value (gene MTHFR) was 0.37 and the “RNA-seq results: MTM1 expression” value (gene MTM1) was −0.29. For the same compound, the “RNA-seq results: MTO1 expression” value (gene MTO1) was −0.13, the “RNA-seq results: MTR expression” value (gene MTR) was 0.10 and the “RNA-seq results: MTRR expression” value (gene MTRR) was −0.43. For the same compound, the “RNA-seq results: MTTP expression” value (gene MTTP) was −0.18, the “RNA-seq results: MVK expression” value (gene MVK) was 0.07 and the “RNA-seq results: MYH9 expression” value (gene MYH9) was 0.20. The “RNA-seq results: MYO5B expression” value (gene MYO5B) was −0.08, the “RNA-seq results: NAGS expression” value (gene NAGS) was 0.31 and the “RNA-seq results: NARS2 expression” value (gene NARS2) was −0.42. For the same compound, the “RNA-seq results: NAT2 expression” value (gene NAT2) was −0.40, the “RNA-seq results: NBAS expression” value (gene NBAS) was −0.22 and the “RNA-seq results: NCF2 expression” value (gene NCF2) was −0.20. The “RNA-seq results: NEK1 expression” value (gene NEK1) was −0.22, the “RNA-seq results: NEK8 expression” value (gene NEK8) was 0.47 and the “RNA-seq results: NEU1 expression” value (gene NEU1) was −0.25. The “RNA-seq results: NFKB2 expression” value (gene NFKB2) was 0.30, the “RNA-seq results: NFKBIA expression” value (gene NFKBIA) was −0.19 and the “RNA-seq results: NFU1 expression” value (gene NFU1) was −0.52. For the same compound, the “RNA-seq results: NGLY1 expression” value (gene NGLY1) was −0.40, the “RNA-seq results: NHP2 expression” value (gene NHP2) was 0.65 and the “RNA-seq results: NME1 expression” value (gene NME1) was 0.00. The “RNA-seq results: NOD2 expression” value (gene NOD2) was 0.30, the “RNA-seq results: NOP10 expression” value (gene NOP10) was 0.03 and the “RNA-seq results: NOTCH1 expression” value (gene NOTCH1) was 0.23. The “RNA-seq results: NOTCH2 expression” value (gene NOTCH2) was 0.01, the “RNA-seq results: NPC1 expression” value (gene NPC1) was −0.09 and the “RNA-seq results: NR1H4 expression” value (gene NR1H4) was 0.00. The “RNA-seq results: NUBPL expression” value (gene NUBPL) was −0.11, the “RNA-seq results: NUDT7 expression” value (gene NUDT7) was −0.70 and the “RNA-seq results: NUDT12 expression” value (gene NUDT12) was −0.32. For the same compound, the “RNA-seq results: OAT expression” value (gene OAT) was −0.40, the “RNA-seq results: OPA3 expression” value (gene OPA3) was 0.14 and the “RNA-seq results: OTC expression” value (gene OTC) was −0.33. The “RNA-seq results: PAF1 expression” value (gene PAF1) was −0.04, the “RNA-seq results: PAH expression” value (gene PAH) was −0.22 and the “RNA-seq results: PANK2 expression” value (gene PANK2) was −0.22. The “RNA-seq results: PAOX expression” value (gene PAOX) was −0.04, the “RNA-seq results: PC expression” value (gene PC) was 0.27 and the “RNA-seq results: PCCA expression” value (gene PCCA) was −0.23. The “RNA-seq results: PCK2 expression” value (gene PCK2) was 0.18, the “RNA-seq results: PCSK9 expression” value (gene PCSK9) was 0.46 and the “RNA-seq results: PCYT1A expression” value (gene PCYT1A) was −0.07. The “RNA-seq results: PDGFRA expression” value (gene PDGFRA) was −0.06, the “RNA-seq results: PDP1 expression” value (gene PDP1) was −0.30 and the “RNA-seq results: PEPD expression” value (gene PEPD) was 0.03. The “RNA-seq results: PEX11A expression” value (gene PEX11A) was −0.27, the “RNA-seq results: PEX12 expression” value (gene PEX12) was −0.20 and the “RNA-seq results: PEX14 expression” value (gene PEX14) was 0.19. For the same compound, the “RNA-seq results: PFKM expression” value (gene PFKM) was 0.45, the “RNA-seq results: PGM1 expression” value (gene PGM1) was −0.24 and the “RNA-seq results: PHGDH expression” value (gene PHGDH) was 0.38. The “RNA-seq results: PHKA1 expression” value (gene PHKA1) was −0.18, the “RNA-seq results: PHKA2 expression” value (gene PHKA2) was 0.11 and the “RNA-seq results: PHKB expression” value (gene PHKB) was −0.39. For the same compound, the “RNA-seq results: PHYH expression” value (gene PHYH) was −0.26, the “RNA-seq results: PIEZO1 expression” value (gene PIEZO1) was 0.30 and the “RNA-seq results: PIGA expression” value (gene PIGA) was −0.37. For the same compound, the “RNA-seq results: PIGM expression” value (gene PIGM) was −0.35, the “RNA-seq results: PKD1 expression” value (gene PKD1) was 0.61 and the “RNA-seq results: PKD2 expression” value (gene PKD2) was 0.28. The “RNA-seq results: PKHD1 expression” value (gene PKHD1) was 0.34, the “RNA-seq results: PKLR expression” value (gene PKLR) was 0.35 and the “RNA-seq results: PLA2G6 expression” value (gene PLA2G6) was 0.59. The “RNA-seq results: PLEKHM1 expression” value (gene PLEKHM1) was 0.10, the “RNA-seq results: PMVK expression” value (gene PMVK) was 0.39 and the “RNA-seq results: PNP” value (gene PNP) was −0.40. The “RNA-seq results: PNPLA2” value (gene PNPLA2) was 0.02, the “RNA-seq results, POLD1” value (gene POLD1) was 0.24 and the “RNA-seq results: POLD1” value (gene POLD1) was 0.30. The “RNA-seq results, POLG2” value (gene POLG2) was 0.19, the “RNA-seq results: POLG2” value (gene POLG2) was 0.22 and the “RNA-seq results, POLG” value (gene POLG) was 0.03. For the same compound, the “RNA-seq results: POLG” value (gene POLG) was 0.10, the “RNA-seq results, POR” value (gene POR) was 0.82 and the “RNA-seq results: POR” value (gene POR) was 0.16. For the same compound, the “RNA-seq results, PPAPDC2” value (gene PPAPDC2) was −0.01, the “RNA-seq results: PPAPDC2” value (gene PPAPDC2) was −0.14 and the “RNA-seq results, PPARA” value (gene PPARA) was 0.09. For the same compound, the “RNA-seq results: PPARA” value (gene PPARA) was −0.14, the “RNA-seq results, PPARG” value (gene PPARG) was 0.16 and the “RNA-seq results: PPARG” value (gene PPARG) was −0.47. For the same compound, the “RNA-seq results, PPM1K” value (gene PPM1K) was 0.13, the “RNA-seq results: PPM1K” value (gene PPM1K) was −0.24 and the “RNA-seq results, PRKCD” value (gene PRKCD) was 0.03. For the same compound, the “RNA-seq results: PRKCD” value (gene PRKCD) was 0.06, the “RNA-seq results, PRODH” value (gene PRODH) was 0.2 and the “RNA-seq results: PRODH” value (gene PRODH) was −0.14. The “RNA-seq results, PROS1” value (gene PROS1) was −0.19, the “RNA-seq results: PROS1” value (gene PROS1) was −0.20 and the “RNA-seq results, PROZ” value (gene PROZ) was 0.28. The “RNA-seq results: PROZ” value (gene PROZ) was 0.10, the “RNA-seq results, PSAT1” value (gene PSAT1) was 0.26 and the “RNA-seq results: PSAT1” value (gene PSAT1) was −0.18. The “RNA-seq results, PSMB8” value (gene PSMB8) was 0.02, the “RNA-seq results: PSMB8” value (gene PSMB8) was 0.08 and the “RNA-seq results, PSPH” value (gene PSPH) was 0.05. For the same compound, the “RNA-seq results: PSPH” value (gene PSPH) was −0.12, the “RNA-seq results, PTCH1” value (gene PTCH1) was 0.28 and the “RNA-seq results: PTCH1” value (gene PTCH1) was 0.20. For the same compound, the “RNA-seq results, PTRF” value (gene PTRF) was −0.15 and the “RNA-seq results: PTRF” value (gene PTRF) was 0.25.

Source: US20210254056A1, “IDENTIFICATION AND TARGETED MODULATION OF GENE SIGNALING NETWORKS” (CAMP4 THERAPEUTICS CORPORATION, priority 2017, published 2021)
